Laboratory results as given in paper PMC6691761, “Potential multifunctional agents with anti-hepatoma and anti-inflammation properties by inhibiting NF-кB activation” (Journal of Enzyme Inhibition and Medicinal Chemistry, 2019).

Key:
[1] = tested on: human lung carcinoma cells (A549); test: Cytotoxicity, MTT assay, A549; type: cell-based; details: for IC50: MTT, 24 h
Excerpt: Compounds 83–102 were screened against human neoplastic cell lines, such as human breast cancer cells (MCF-7), human colon cancer cells (HCT116), human lung carcinoma cells (A549), human gastric adenocarcinoma cells (SGC7901), human liver hepatocellular carcinoma cell line (HepG2), human cervical carcinoma cells (HeLa), human acute mononuclear granulocyte leukaemia (THP-1), and human normal hepatic cell line (LO2) using modified MTT assay. All the cells were obtained from the American Type Culture Collection (ATCC, Manassas, VA). The cells were cultured in DMEM or 1640. Positive controls (Doxorubicin (DOX) and Curcumin) and BAPs were initially dissolved in dimethyl sulphoxide (DMSO). Experimental concentration of DMSO was always 0.1% (v/v). The concentrations of BAPs and positive controls were 50, 20, 10, 5, 2.5, 1, 0.5, 0.1, 0.05, and 0.01 μg/mL.
The cells (1 × 10^4 cells/well) were seeded in a 96-well plate and incubated for 24 h. Cells treated with serial concentrations of drugs were incubated for another 24 h. After the media removed, 20 μL of MTT (5 mg/mL) solution was added and incubated for 4 h at 37 °C. The MTT solution was removed and then 150 μL of DMSO was added. The optical density was measured with a multi-well plate reader (TECAN, Mӓnnedorf, Switzerland) at 570 nm. The results are expressed as a decrease in the cell viability (%) in comparison to untreated controls. The concentration of each compound was examined in triplicate, and the IC50 values are expressed in Table 1.

[2] = tested on: Bcl-2 expression in HepG2 xenografts; test: Western blot, Bcl-2 in HepG2 xenografts; type: in vivo, Balb/c nude mice; details: 0.2, 1.0 and 5.0 mg/kg
Procedure: (§1) The HepG2 cells xenografts were established using the Balb/c nude mice (female, 7-week-old, 17–19 g, n = 30) (Shanghai Laboratory Animal Center, Shanghai Shi, China) were used to investigate the anti-hepatoma effect of 96. Animal experiments were reviewed and approved by the Binzhou Medical University Experimental Animal Committee. Briefly, HepG2 cells (1 × 10^7/0.2 ml PBS/mouse) were inoculated subcutaneously. Three days after the inoculation, the mice were randomly divided into five groups: the saline treated group (Control), 96 (0.2 mg/kg) group, 96 (1.0 mg/kg) treated group, 96 (5.0 mg/kg) treated group, and DOX (1.0 mg/kg) treated group. 96 were dissolved in saline containing 1% of DMSO and administered intraperitoneally every 2 d for 20 days. DOX was also administered intraperitoneally every 2 d for 20 d. The body weight and HepG2 xenografts volumes were recorded from the day of treatment, and xenografts volumes were calculated using the equation: tumour volume = length×(width)[2]×π/6. At the end of the experiment, mice were sacrificed and the xenografts were obtained for western blotting, HE staining and immunohistochemistry staining.
Western blotting was performed to detect the expression of Bcl-2, Bax and C-caspase-3 in HepG2 xenografts. Fresh HepG2 xenografts tissues were lysed and the obtained proteins were processed as the protein obtained from the HepG2 cells.

[3] = tested on: p-p65 in TNF-α-stimulated HepG2 cells; test: TNF-α-stimulated phosphorylation of p65 in HepG2 cells; type: cell-based, human; details: HepG2, 1.0, 2.0, and 4.0 μM
Procedure: (§2) The HepG2 cells were treated with BAP 96 at different concentrations (1.0, 2.0, and 4.0 µM) for 3 h, and washed twice by PBS. The cells were lysed and the extracted proteins of cell lysates were separated by 10% SDS-PAGE gel electrophoresis, then transferred onto polyvinylidene fluorides membranes. The membranes were probed with antibodies and visualized using an enhanced chemiluminescence (ECL) detection kit.
(§3) It is known that NF-κB has been implicated in the crossroad of inflammation and cancer[25]^,[26]. In our previous study, some BAPs (such as 23 and 67) could inhibit NF-κB activation by inhibiting the phosphorylation of NF-κB (P65) and IκB[13]^,[14]. Herein, it is an urgent to resolve whether 96 has the same mechanism of action as 23 and 67. Therefore, the RAW264.7 cells were pretreated with LPS, and then treated with different concentrations (1.0, 2.0, 4.0 μM) of 96. […] Similarly, the HepG2 cells were pretreated with TNF-α, then treated with different concentrations (1.0, 2.0, and 4.0 μM) of 96.

HepG2 cells = test: Apoptosis assay, annexin V staining, flow cytometry; type: cell-based, human; details: 2.0 μM, 24 h
Procedure: After treated with BAP 96 (1.0, 2.0, and 4.0 μM) and DMSO for 24 h. HepG2 cells were washed and added with 500 μL of Binding Buffer, 5 μL of Annexin V-EGFP and 5 μL of Propidiumlodide and mix (BD Biosciences, San Jose, CA) according to the manufacturer’s instruction. The mixed solution was gently vortexed and incubated in the dark at RT for 15 min. The results were detected by flow cytometry (BD FACS Calibur, San Jose, CA) within 1 h.

[4] = tested on: NF-κB p65 nuclear translocation in TNF-α-stimulated HepG2 cells; test: NF-κB p65 nuclear translocation, immunofluorescence, HepG2; type: cell-based, human; details: HepG2, TNF-α 10 ng/mL, 4.0 μM
Procedure: RAW264.7 cells were pretreated in 96-well plates with LPS (1 μg/mL) for 15 min and then treated with 96 for 2 h. Similarly, HepG2 cells were pretreated with TNF-α (10 ng/mL) for 15 min and then treated with 96 for 4 h. The cells were fixed with 2% paraformaldehyde for 15 min at 37 °C and permeabilized using 0.1% Triton X-100 for 10 min at RT. After blockage with 3% BSA for 30 min, the cells were incubated with anti-NF-κB p65 antibody (NOVUS BIOLOGICALS, Colorado, USA) at 4 °C overnight. After washing, the anti-mouse Alexa488-conjugated secondary antibody (Jackson Immuno Research, West Grove, PA) was incubated for 30 min at RT. After washed with PBS, the cells were incubated in 4-6-diamidino-2-phenyindole (DAPI; Sigma, St. Louis, MO) for 15 min in the dark at RT. The cell images were simultaneously viewed using a microscopy system in High Throughput Screen (Operetta, PerkinElmer, Waltham, MA).

[5] = tested on: p-IκBα in LPS-stimulated RAW264.7 cells; test: LPS-stimulated phosphorylation of IκBα in RAW264.7 cells; type: cell-based; details: RAW264.7, 1.0, 2.0, 4.0 μM
Procedure: as §2, §3

[6] = Body weight of xenograft mice; type: in vivo; details: 0.2, 1.0, 5.0 mg/kg i.p. every 2 d for 20 days
Procedure: as §1

## CN1CC(=Cc2cccc(N=Cc3cc(Br)ccc3O)c2)C(=O)C(=Cc2ccccc2F)C1 [Compound 96]
[1]; Homo sapiens, A549, 24 h
  IC50: < 2000 nM
[1]
  IC50: 1600 ± 400 nM
[1]; quotient of IC50 towards LO2 cells
  A549 SI (selectivity index): 12.4
[2]
  Expression of Bcl-2 in HepG2 xenografts: dose-dependently decreased
[3]
  Phosphorylation of p65 induced by TNF-α: dose-dependent downward trend
HepG2 cells
  Apoptosis rate of HepG2 cells: 24.4%
[4]
  p65 nuclear translocation: prevented the p65 nuclear translocation
[5]
  Expression level of LPS-induced p-IκBα: effectively decreased in a dose-dependent manner
[6]
  Toxicity judged by mice body weight: correspondingly nontoxic at the experimental doses
